pKi: −log10 of the molar value.

This passage reports Ki results from patent publication US7528138B2, “Pyrazolo[1,5-a]pyrimidines useful as inhibitors of protein kinases” (Vertex Pharmaceuticals Incorporated, priority 2004, dated 2009).

The target of one assay is c-Met (Homo sapiens, UniProt P08581). Kind of assay: c-Met Inhibition Assay, coupled enzyme system. The format is biochemical. The note with it: enzyme inhibition data (Ki), Table 11. In short, it runs like this:
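Pyruvate kinase/lactate dehydrogenase-coupled NADH assay in HEPES pH 7.5 with 80 nM c-Met, 200 μM ATP and 10 μM polyGluTyr at 30° C. Compound (0.006–12.5 μM final, 12-point) preincubated 10 min before ATP start; rates over 10 min gave Ki.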

The target of a further assay is T1, JAK3 (Homo sapiens, UniProt P52333).
T1 sequence (P52333 1-1124): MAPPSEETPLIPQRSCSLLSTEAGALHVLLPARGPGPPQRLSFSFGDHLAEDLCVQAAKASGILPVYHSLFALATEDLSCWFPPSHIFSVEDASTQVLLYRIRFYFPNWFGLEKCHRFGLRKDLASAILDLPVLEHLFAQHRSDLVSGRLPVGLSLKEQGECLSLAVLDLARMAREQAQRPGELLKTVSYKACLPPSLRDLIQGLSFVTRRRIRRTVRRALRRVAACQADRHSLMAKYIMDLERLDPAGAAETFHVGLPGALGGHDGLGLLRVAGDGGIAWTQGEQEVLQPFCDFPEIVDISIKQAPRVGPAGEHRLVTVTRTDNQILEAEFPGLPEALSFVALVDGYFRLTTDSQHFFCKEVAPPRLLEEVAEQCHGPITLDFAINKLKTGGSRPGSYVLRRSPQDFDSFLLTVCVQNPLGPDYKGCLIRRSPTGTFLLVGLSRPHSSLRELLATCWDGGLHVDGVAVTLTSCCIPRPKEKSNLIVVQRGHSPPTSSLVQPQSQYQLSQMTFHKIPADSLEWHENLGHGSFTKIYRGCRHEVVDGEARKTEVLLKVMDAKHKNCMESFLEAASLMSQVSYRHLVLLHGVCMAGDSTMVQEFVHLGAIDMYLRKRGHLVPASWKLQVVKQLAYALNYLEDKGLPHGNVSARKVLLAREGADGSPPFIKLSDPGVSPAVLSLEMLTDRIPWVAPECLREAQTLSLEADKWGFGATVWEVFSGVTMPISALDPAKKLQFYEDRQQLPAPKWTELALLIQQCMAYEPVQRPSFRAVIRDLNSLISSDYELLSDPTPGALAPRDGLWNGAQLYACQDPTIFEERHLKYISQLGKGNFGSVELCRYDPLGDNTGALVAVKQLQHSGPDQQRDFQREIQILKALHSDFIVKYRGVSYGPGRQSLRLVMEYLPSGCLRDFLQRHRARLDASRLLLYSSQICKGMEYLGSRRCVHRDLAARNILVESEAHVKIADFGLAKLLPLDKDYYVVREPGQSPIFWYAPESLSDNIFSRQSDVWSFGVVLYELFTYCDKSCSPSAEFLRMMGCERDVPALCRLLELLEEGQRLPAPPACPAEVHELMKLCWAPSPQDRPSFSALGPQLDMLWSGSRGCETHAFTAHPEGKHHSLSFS
Kind of assay: JAK3 Inhibition Assay, 33P incorporation. The note with it: enzyme inhibition data (Ki), Table 11. The format is biochemical. In short, it runs like this:
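Recombinant JAK3 at 1 nM in HEPES pH 7.4 buffer with 10 mM MgCl2, 1 mM DTT and 0.01% BSA. Substrates were 5 μM ATP (200 uCi/μmole) and 1 μM poly(Glu)4Tyr, reacted 20 min at 25 °C. Stopped with TCA, and 33P incorporation counted on glass fiber filters.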

c-Met, sequence (P08581 25-1390): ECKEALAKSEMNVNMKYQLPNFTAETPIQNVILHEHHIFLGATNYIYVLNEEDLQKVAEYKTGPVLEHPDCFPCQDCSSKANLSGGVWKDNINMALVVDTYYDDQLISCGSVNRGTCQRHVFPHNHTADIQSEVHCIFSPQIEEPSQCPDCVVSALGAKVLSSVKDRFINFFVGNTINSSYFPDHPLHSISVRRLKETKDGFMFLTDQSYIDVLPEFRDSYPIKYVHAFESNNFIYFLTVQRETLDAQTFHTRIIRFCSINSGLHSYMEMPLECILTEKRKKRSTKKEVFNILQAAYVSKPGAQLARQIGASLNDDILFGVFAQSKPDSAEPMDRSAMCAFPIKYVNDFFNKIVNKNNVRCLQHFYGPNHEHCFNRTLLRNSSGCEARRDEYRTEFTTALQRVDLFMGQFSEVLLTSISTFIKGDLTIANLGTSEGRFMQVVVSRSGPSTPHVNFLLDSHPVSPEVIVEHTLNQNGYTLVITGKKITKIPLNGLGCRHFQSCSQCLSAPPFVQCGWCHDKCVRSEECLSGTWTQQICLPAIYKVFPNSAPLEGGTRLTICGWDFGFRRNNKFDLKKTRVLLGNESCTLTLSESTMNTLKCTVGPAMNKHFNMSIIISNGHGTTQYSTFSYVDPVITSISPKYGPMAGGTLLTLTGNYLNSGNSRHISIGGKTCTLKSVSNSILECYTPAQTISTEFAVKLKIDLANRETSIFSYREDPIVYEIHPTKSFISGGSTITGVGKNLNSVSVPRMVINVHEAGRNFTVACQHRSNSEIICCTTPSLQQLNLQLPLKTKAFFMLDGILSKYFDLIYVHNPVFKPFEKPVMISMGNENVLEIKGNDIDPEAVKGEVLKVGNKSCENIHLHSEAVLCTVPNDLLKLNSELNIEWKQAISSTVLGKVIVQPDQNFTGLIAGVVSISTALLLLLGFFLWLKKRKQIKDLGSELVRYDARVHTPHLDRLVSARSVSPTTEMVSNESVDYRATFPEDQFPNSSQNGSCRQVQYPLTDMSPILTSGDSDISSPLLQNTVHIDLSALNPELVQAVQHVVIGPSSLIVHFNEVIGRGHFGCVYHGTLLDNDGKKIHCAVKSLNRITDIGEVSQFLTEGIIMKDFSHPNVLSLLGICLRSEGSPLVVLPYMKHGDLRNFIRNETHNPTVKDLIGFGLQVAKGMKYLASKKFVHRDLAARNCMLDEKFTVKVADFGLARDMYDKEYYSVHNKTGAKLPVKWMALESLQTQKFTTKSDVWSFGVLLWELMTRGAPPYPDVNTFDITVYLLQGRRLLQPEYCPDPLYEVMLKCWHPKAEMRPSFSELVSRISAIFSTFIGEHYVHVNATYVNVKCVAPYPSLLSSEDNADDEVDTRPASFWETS

In the case of `CC(C)N(C)C(=O)c1ccc(-c2cnc3c(-c4ccccn4)c(N)nn3c2)nc1` [Compound V-67], the negative logarithm of the Ki (pKi) is over 6.30 on c-Met and 5.30 to 6.30 at JAK3.

With `Nc1nn2cc(-c3ccc(C(=O)N4CCCC(CO)C4)cn3)cnc2c1-c1ccccn1` (centres unmarked) [Compound V-71], the pKi is over 6.30 at c-Met and 5.30 to 6.30 at JAK3.

As for `Cc1cnc2c(-c3cc(NC4CCN(Cc5ccccc5)CC4)ncn3)c(N)nn2c1` [Compound V-285], the negative logarithm of the Ki (pKi) at c-Met was over 6.30; on JAK3, 5.30 to 6.30.

`Cc1cnc2c(-c3cc(NC4CC4)ncn3)c(N)nn2c1` [Compound V-289]: the negative logarithm of the Ki (pKi) is over 6.30 at c-Met and 5.30 to 6.30 at JAK3.

In the case of `Nc1nn2cc(-c3ccc(C(=O)N4CCC(N)C4)cn3)cnc2c1-c1ccccn1` (centres unmarked) [Compound V-81], the pKi on c-Met was over 6.30; on JAK3 it was 5.30 to 6.30.

As for `CN1CCN(C(=O)c2cccc(-c3cnc4c(-c5ccccn5)c(N)nn4c3)c2)CC1` [Compound V-55], the values for the negative logarithm of the Ki (pKi) on c-Met and on JAK3 were over 6.30 and under 5.30, respectively.

Consider `CN1CCCN(C(=O)c2ccc(-c3cnc4c(-c5ccccn5)c(N)nn4c3)nc2)CC1` [Compound V-70], for which the values for the pKi on c-Met and at JAK3 were over 6.30 and 5.30 to 6.30, respectively.

Consider `CCOC(=O)c1c(N)nn2cc(-c3ccc(Cl)cc3)cnc12` [Compound V-24], for which the negative-log Ki (pKi) on c-Met was 5.30 to 6.30; on JAK3, under 5.30.

Turning to `COC(=O)N1CCN(C(=O)c2ccc(-c3cnc4c(-c5ccccn5)c(N)nn4c3)nc2)CC1` [Compound V-64], the figures for the pKi on c-Met and on JAK3 were over 6.30 and 5.30 to 6.30, respectively.

Regarding `CCCN(CCO)C(=O)c1ccc(-c2cnc3c(-c4ccccn4)c(N)nn3c2)nc1` [Compound V-92], the pKi at c-Met is over 6.30; on JAK3 it was 5.30 to 6.30.

As to `Cc1cnc2c(-c3cc(NC(C)C)ncn3)c(N)nn2c1` [Compound V-273], the pKi on c-Met is over 6.30; on JAK3 it was 5.30 to 6.30.

Consider `COCCN1CCN(C(=O)c2ccc(-c3cnc4c(-c5ccccn5)c(N)nn4c3)nc2)CC1` [Compound V-68], for which the negative-log Ki (pKi) on c-Met was over 6.30; on JAK3, 5.30 to 6.30.

Regarding `CCOC(=O)N1CCN(C(=O)c2ccc(-c3cnc4c(-c5ccccn5)c(N)nn4c3)nc2)CC1` [Compound V-76], the pKi is over 6.30 on c-Met and 5.30 to 6.30 on JAK3.

Take `CC[C@H](C)Nc1cc(-c2c(N)nn3cc(C)cnc23)ncn1` [Compound V-294]: the negative logarithm of the Ki (pKi) on c-Met was over 6.30; on JAK3, 5.30 to 6.30.

For `Cc1cnc2c(-c3cc(NCC4CC4)ncn3)c(N)nn2c1` [Compound V-277], the pKi at c-Met was over 6.30; on JAK3, 5.30 to 6.30.

With `CCN(CCCCN)C(=O)c1ccc(-c2cnc3c(-c4ccccn4)c(N)nn3c2)nc1` [Compound V-74], the pKi on c-Met is over 6.30; at JAK3, 5.30 to 6.30.

For the molecule `Nc1nn2cc(Cl)cnc2c1-c1ccccn1` [Compound V-280], the pKi at c-Met was 5.30 to 6.30; at JAK3 it was under 5.30.

For `CN(CCN)C(=O)c1ccc(-c2cnc3c(-c4ccccn4)c(N)nn3c2)nc1` [Compound V-94], the pKi is over 6.30 on c-Met and under 5.30 on JAK3.

In the case of `Nc1nn2cc(-c3ccc(C(=O)N4CCC[C@@H]4CO)cn3)cnc2c1-c1ccccn1` [Compound V-93], the pKi was over 6.30 on c-Met and 5.30 to 6.30 at JAK3.

As to `Nc1nn2cc(-c3ccc(C(=O)NCCF)cn3)cnc2c1-c1ccccn1` [Compound V-73], the pKi at c-Met was over 6.30; at JAK3, under 5.30.

In the case of `COc1ccccc1Nc1cc(-c2c(N)nn3cc(C)cnc23)ncn1` [Compound V-274], the negative-log Ki (pKi) at c-Met was over 6.30; at JAK3, 5.30 to 6.30.

Take `CN(C)CCNC(=O)c1ccc(-c2cnc3c(-c4ccccn4)c(N)nn3c2)nc1` [Compound V-65]: the pKi at c-Met is over 6.30; on JAK3 it was 5.30 to 6.30.

Consider `Nc1nn2cc(-c3ccc(C(=O)N4CCCCC4CCO)cn3)cnc2c1-c1ccccn1` (centres unmarked) [Compound V-82], for which the negative-log Ki (pKi) at c-Met was over 6.30; on JAK3 it was under 5.30.

Consider `COCCN(C)C(=O)c1ccc(-c2cnc3c(-c4ccccn4)c(N)nn3c2)nc1` [Compound V-75], for which the results for the pKi at c-Met and at JAK3 were over 6.30 and under 5.30, respectively.

As to `Cc1cnc2c(-c3cc(N[C@@H](C)CO)ncn3)c(N)nn2c1` [Compound V-295], the negative logarithm of the Ki (pKi) on c-Met is over 6.30; at JAK3 it was 5.30 to 6.30.

With `Cc1cnc2c(-c3cc(N[C@H](C)CO)ncn3)c(N)nn2c1` [Compound V-293], the pKi on c-Met was over 6.30; on JAK3, 5.30 to 6.30.

With `Nc1nn2cc(-c3ccc(C(=O)N4CCSCC4)cn3)cnc2c1-c1ccccn1` [Compound V-87], the pKi on c-Met is over 6.30; at JAK3, 5.30 to 6.30.

On to `CCN(C(=O)c1c(N)nn2cc(-c3ccncn3)cnc12)C(C)C` [Compound V-33], for which the figures for the pKi on c-Met and on JAK3 were 5.30 to 6.30 and under 5.30, respectively.

Take `CCN(CCC#N)C(=O)c1ccc(-c2cnc3c(-c4ccccn4)c(N)nn3c2)nc1` [Compound V-90]: the pKi was over 6.30 on c-Met and 5.30 to 6.30 on JAK3.

For the molecule `Nc1nn2cc(N3CCOCC3)cnc2c1-c1ccccn1` [Compound V-57], the negative logarithm of the Ki (pKi) is over 6.30 at c-Met and under 5.30 at JAK3.

With `Nc1nn2cc(-c3ccc(C(=O)N4CCC(CCO)CC4)cn3)cnc2c1-c1ccccn1` [Compound V-83], the pKi was over 6.30 on c-Met and 5.30 to 6.30 at JAK3.

Take `CCN(CCN)C(=O)c1ccc(-c2cnc3c(-c4ccccn4)c(N)nn3c2)nc1` [Compound V-62]: the pKi at c-Met is over 6.30; on JAK3 it was 5.30 to 6.30.

Consider `CSc1cc(-c2c(N)nn3cc(C)cnc23)ncn1` [Compound V-281], for which the negative-log Ki (pKi) on c-Met is over 6.30; at JAK3, 5.30 to 6.30.

As to `CCN(C)C(=O)c1ccc(-c2cnc3c(-c4ccccn4)c(N)nn3c2)nc1` [Compound V-89], the pKi is over 6.30 at c-Met and 5.30 to 6.30 at JAK3.

Regarding `Cc1cnc2c(-c3cc(NCC4CCCO4)ncn3)c(N)nn2c1` (centres unmarked) [Compound V-278], the pKi was over 6.30 on c-Met and 5.30 to 6.30 on JAK3.

`CC(C)N1CCN(c2ccc(-c3cnc4c(-c5ccccn5)c(N)nn4c3)cc2)CC1` [Compound V-51]: the negative logarithm of the Ki (pKi) is over 6.30 on c-Met and 5.30 to 6.30 on JAK3.

On to `COc1ccncc1-c1cnc2c(-c3ccccn3)c(N)nn2c1` [Compound V-22], for which the values for the negative-log Ki (pKi) at c-Met and on JAK3 were over 6.30 and under 5.30, respectively.

With `CCCN(CCCN)C(=O)c1ccc(-c2cnc3c(-c4ccccn4)c(N)nn3c2)nc1` [Compound V-85], the values for the pKi on c-Met and at JAK3 were over 6.30 and 5.30 to 6.30, respectively.

For `CN(C)CCNC(=O)c1cccc(-c2cnc3c(-c4ccccn4)c(N)nn3c2)c1` [Compound V-54], the negative-log Ki (pKi) on c-Met is over 6.30; on JAK3 it was under 5.30.

As to `Cc1cnc2c(-c3cc(N4CCCCC4)ncn3)c(N)nn2c1` [Compound V-276], the results for the pKi at c-Met and on JAK3 were over 6.30 and 5.30 to 6.30, respectively.

With `COc1ccc(-c2cnc3c(C#N)c(N)nn3c2)cc1` [Compound V-2], the pKi is 5.30 to 6.30 at c-Met and under 5.30 at JAK3.

For the molecule `Nc1nn2cc(-c3ccc(C(=O)N4CCC4)cn3)cnc2c1-c1ccccn1` [Compound V-86], the pKi at c-Met is over 6.30; at JAK3, under 5.30.

Take `Cc1cnc2c(-c3cc(NC4CCN(Cc5ccccc5)C4)ncn3)c(N)nn2c1` (centres unmarked) [Compound V-286]: the negative logarithm of the Ki (pKi) is over 6.30 at c-Met and 5.30 to 6.30 on JAK3.

Broadly, the pKi is −log10 of the Ki, conventionally taken in molar units. A low value points to a large Ki.
